Legend:
Experiment in all cases: cells
[1] = test system: HSC-3; assay type: functional, cell-based, Homo sapiens
Description: SANGER: Inhibition of human HSC-3 cell growth in a cell viability assay.

[2] = test system: AN3-CA; assay type: functional, cell-based, Homo sapiens;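 note: growth inhibition of human AN3-CA cells measured by a cell viability assay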
Description: SANGER: Inhibition of human AN3-CA cell growth in a cell viability assay.

[3] = test system: Panc1005; assay type: functional, cell-based, Homo sapiens;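 note: growth inhibition of human PANC-10-05 cells, measured by a cell viability assay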
Description: SANGER: Inhibition of human PANC-10-05 cell growth in a cell viability assay.

[4] = test system: MDA-MB-361; assay type: functional, cell-based, Homo sapiens
[5] = test system: RCM-1; assay type: functional, cell-based, Homo sapiens;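 note: growth inhibition of the RCM-1 line, determined with a cell viability readout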
Description: SANGER: Inhibition of human RCM-1 cell growth in a cell viability assay.

[6] = test system: SK-MEL-24; assay type: functional, cell-based, Homo sapiens;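 note: growth inhibition read out by a cell viability assay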
Description: SANGER: Inhibition of human SK-MEL-24 cell growth in a cell viability assay.

[7] = test system: BFTC-905; assay type: functional, cell-based, Homo sapiens
Description: SANGER: Inhibition of human BFTC-905 cell growth in a cell viability assay.

[8] = test system: P12-Ichikawa; assay type: functional, cell-based, Homo sapiens
[9] = test system: PC-14; assay type: functional, cell-based, Homo sapiens;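 note: cell viability assay measuring inhibition of PC-14 cell growth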
Description: SANGER: Inhibition of human PC-14 cell growth in a cell viability assay.

[10] = test system: OVCAR-5; assay type: functional, cell-based, Homo sapiens;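 note: growth inhibition of human OVCAR-5 cells, read out with a cell viability assay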
Description: SANGER: Inhibition of human OVCAR-5 cell growth in a cell viability assay.

[11] = test system: HOP-92; assay type: functional, cell-based, Homo sapiens;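 note: cell viability readout, with IC50 reflecting inhibition of HOP-92 cell growth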
Description: SANGER: Inhibition of human HOP-92 cell growth in a cell viability assay.

[12] = test system: SK-HEP1; assay type: functional, cell-based, Homo sapiens, SK-HEP-1;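 note: cell viability readout used to quantify reduction in proliferation of human SK-HEP-1 cells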
Description: SANGER: Inhibition of human SK-HEP-1 cell growth in a cell viability assay.

[13] = test system: HCC1569; assay type: functional, cell-based, Homo sapiens;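 note: growth inhibition of human HCC1569 cells, read out with a cell viability assay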
Description: SANGER: Inhibition of human HCC1569 cell growth in a cell viability assay.

[14] = test system: BFTC-909; assay type: functional, cell-based, Homo sapiens
Description: SANGER: Inhibition of human BFTC-909 cell growth in a cell viability assay.

[15] = test system: NCI-H810; assay type: functional, cell-based, Homo sapiens;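 note: IC50 reflects inhibition of cancer cell line growth, read out with a cell viability assay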
Description: SANGER: Inhibition of human NCI-H810 cell growth in a cell viability assay.

[16] = test system: CAL-27; assay type: functional, cell-based, Homo sapiens;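 note: Viability-based readout, IC50 reflecting inhibition of CAL-27 cell growth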
Description: SANGER: Inhibition of human CAL-27 cell growth in a cell viability assay.

[17] = test system: CAL-85-1; assay type: functional, cell-based, Homo sapiens;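 note: growth inhibition of human CAL-85-1 cells, read out with a cell viability assay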
Description: SANGER: Inhibition of human CAL-85-1 cell growth in a cell viability assay.

[18] = test system: LCLC-97TM1; assay type: functional, cell-based, Homo sapiens;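 note: cell viability assay measuring growth inhibition of human LCLC-97TM1 cells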
Description: SANGER: Inhibition of human LCLC-97TM1 cell growth in a cell viability assay.

[19] = test system: C-33-A; assay type: functional, cell-based, Homo sapiens;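 note: cell viability assay measuring growth inhibition of C-33-A cells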
Description: SANGER: Inhibition of human C-33-A cell growth in a cell viability assay.

[20] = test system: A2058; assay type: functional, cell-based, Homo sapiens;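 note: reduction of A2058 cell growth, read out with a viability assay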
Description: SANGER: Inhibition of human A2058 cell growth in a cell viability assay.

[21] = test system: KYSE-510; assay type: functional, cell-based, Homo sapiens;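 note: cell viability readout used to measure how strongly growth of the cell line is suppressed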
Description: SANGER: Inhibition of human KYSE-510 cell growth in a cell viability assay.

[22] = test system: ASPC1; assay type: functional, cell-based, Homo sapiens;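 note: growth inhibition of AsPC-1 cells, read out with a cell viability assay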
Description: SANGER: Inhibition of human AsPC-1 cell growth in a cell viability assay.

[23] = test system: SF-295; assay type: functional, cell-based, Homo sapiens;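 note: growth inhibition of SF-295 cells, read out with a cell viability assay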
Description: SANGER: Inhibition of human SF295 cell growth in a cell viability assay.

[24] = test system: Calu-3; assay type: functional, cell-based, Homo sapiens;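 note: growth inhibition of human Calu-3 cells, determined with a cell viability assay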
Description: SANGER: Inhibition of human Calu-3 cell growth in a cell viability assay.

[25] = test system: HuCCT-1; assay type: functional, cell-based, Homo sapiens, HuCCT1;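 note: growth inhibition of HuCCT-1 cells, read out by a cell viability assay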
Description: SANGER: Inhibition of human HuCCT1 cell growth in a cell viability assay.

[26] = test system: SN12C; assay type: functional, cell-based, Homo sapiens;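 note: growth inhibition of human SN12C cells, measured by a cell viability assay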
Description: SANGER: Inhibition of human SN12C cell growth in a cell viability assay.

[27] = test system: NCI-H1563; assay type: functional, cell-based, Homo sapiens;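 note: growth inhibition of human NCI-H1563 cells, read out with a cell viability assay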
Description: SANGER: Inhibition of human NCI-H1563 cell growth in a cell viability assay.

[28] = test system: JEG-3; assay type: functional, cell-based, Homo sapiens;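 note: growth inhibition of human JEG-3 cells, read out with a cell viability assay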
Description: SANGER: Inhibition of human JEG-3 cell growth in a cell viability assay.

[29] = test system: HuP-T3; assay type: functional, cell-based, Homo sapiens;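 note: HuP-T3 cell growth inhibition, read out with a cell viability assay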
Description: SANGER: Inhibition of human HuP-T3 cell growth in a cell viability assay.

[30] = test system: SW 1116; assay type: functional, cell-based, Homo sapiens;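 note: growth inhibition of SW1116 cells, read out with a cell viability assay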
Description: SANGER: Inhibition of human SW1116 cell growth in a cell viability assay.

[31] = test system: SK-MEL3; assay type: functional, cell-based, Homo sapiens, SK-MEL-3;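 note: growth inhibition of human SK-MEL-3 cells, read out with a cell viability assay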
Description: SANGER: Inhibition of human SK-MEL-3 cell growth in a cell viability assay.

[32] = test system: HT-1376; assay type: functional, cell-based, Homo sapiens
Description: SANGER: Inhibition of human HT-1376 cell growth in a cell viability assay.

[33] = test system: KYSE-150 cell line; assay type: functional, cell-based, Homo sapiens;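 note: growth inhibition of human KYSE-150 cells, read out with a cell viability assay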
Description: SANGER: Inhibition of human KYSE-150 cell growth in a cell viability assay.

[34] = test system: NCI-H1755; assay type: functional, cell-based, Homo sapiens;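 note: cell viability readout used to measure growth inhibition of NCI-H1755 cells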
Description: SANGER: Inhibition of human NCI-H1755 cell growth in a cell viability assay.

[35] = test system: SCC-9; assay type: functional, cell-based, Homo sapiens;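 note: Read-out is a cell viability assay, with values giving inhibition of cell growth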
Description: SANGER: Inhibition of human SCC-9 cell growth in a cell viability assay.

[36] = test system: NCI-H727; assay type: functional, cell-based, Homo sapiens;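 note: growth inhibition of human NCI-H727 cells, read out with a cell viability assay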
Description: SANGER: Inhibition of human NCI-H727 cell growth in a cell viability assay.

[37] = test system: H-EMC-SS; assay type: functional, cell-based, Homo sapiens
Description: SANGER: Inhibition of human H-EMC-SS cell growth in a cell viability assay.

[38] = test system: ZR-75-30; assay type: functional, cell-based, Homo sapiens;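 note: growth inhibition of ZR-75-30 cells, measured with a cell viability readout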
Description: SANGER: Inhibition of human ZR-75-30 cell growth in a cell viability assay.

[39] = test system: CP50-MEL-B; assay type: functional, cell-based, Homo sapiens;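 note: growth inhibition of the human cell line, measured with a cell viability read-out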
Description: SANGER: Inhibition of human CP50-MEL-B cell growth in a cell viability assay.

[40] = test system: DU-145; assay type: functional, cell-based, Homo sapiens
Description: SANGER: Inhibition of human DU-145 cell growth in a cell viability assay.

[41] = test system: ACHN; assay type: functional, cell-based, Homo sapiens;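 note: cell viability read-out used to gauge how strongly growth of human ACHN cells is suppressed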
Description: SANGER: Inhibition of human ACHN cell growth in a cell viability assay.

[42] = test system: NCI-H2052; assay type: functional, cell-based, Homo sapiens;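 note: growth inhibition of NCI-H2052 cells, read out with a cell viability assay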
Description: SANGER: Inhibition of human NCI-H2052 cell growth in a cell viability assay.

[43] = test system: HT1197; assay type: functional, cell-based, Homo sapiens, HT-1197
Description: SANGER: Inhibition of human HT-1197 cell growth in a cell viability assay.

How did the IC50 ([1]; Homo sapiens, HSC-3) turn out when `CS(=O)(=O)c1ccc(C(=O)Nc2ccc(Cl)c(-c3ccccn3)c2)c(Cl)c1` [VISMODEGIB] was run?
Its IC50 is over 10 µM.

What about the IC50 ([2]; Homo sapiens, AN3-CA) of the same compound?
Its IC50 is over 10 µM.

What about the IC50 ([3]; Homo sapiens, Panc1005) of the same compound?
The IC50 was over 10 µM.

And the IC50 ([4]; Homo sapiens, MDA-MB-361)?
The IC50 was over 10 µM.

And the IC50 ([5]; Homo sapiens, RCM-1)?
The IC50 was over 10 µM.

What about the IC50 ([6]; Homo sapiens, SK-MEL-24) of the same compound?
The IC50 was over 10 µM.

What about the IC50 ([7]; Homo sapiens, BFTC-905) of the same compound?
Its IC50 is over 10 µM.

What about the IC50 ([8]; Homo sapiens, P12-Ichikawa) of the same compound?
The IC50 was over 10 µM.

And the IC50 ([9]; Homo sapiens, PC-14)?
The IC50 was over 10 µM.

What about the IC50 ([10]; Homo sapiens, OVCAR-5) of the same compound?
The IC50 was over 10 µM.

What about the IC50 ([11]; Homo sapiens, HOP-92) of the same compound?
The IC50 was over 10 µM.

And the IC50 ([12]; Homo sapiens, SK-HEP1)?
The IC50 was over 10 µM.

What about the IC50 ([13]; Homo sapiens, HCC1569) of the same compound?
The IC50 was over 10 µM.

And the IC50 ([14]; Homo sapiens, BFTC-909)?
The IC50 was over 10 µM.

What about the IC50 ([15]; Homo sapiens, NCI-H810) of the same compound?
Its IC50 is over 10 µM.

And the IC50 ([16]; Homo sapiens, CAL-27)?
Its IC50 is over 10 µM.

What about the IC50 ([17]; Homo sapiens, CAL-85-1) of the same compound?
The IC50 was over 10 µM.

What about the IC50 ([18]; Homo sapiens, LCLC-97TM1) of the same compound?
Its IC50 is over 10 µM.

What about the IC50 ([19]; Homo sapiens, C-33-A) of the same compound?
Its IC50 is over 10 µM.

What about the IC50 ([20]; Homo sapiens, A2058) of the same compound?
The IC50 was over 10 µM.

And the IC50 ([21]; Homo sapiens, KYSE-510)?
The IC50 was over 10 µM.

And the IC50 ([22]; Homo sapiens, ASPC1)?
Its IC50 is over 10 µM.

What about the IC50 ([23]; Homo sapiens, SF-295) of the same compound?
The IC50 was over 10 µM.

What about the IC50 ([24]; Homo sapiens, Calu-3) of the same compound?
Its IC50 is over 10 µM.

What about the IC50 ([25]; Homo sapiens, HuCCT-1) of the same compound?
The IC50 was over 10 µM.

And the IC50 ([26]; Homo sapiens, SN12C)?
Its IC50 is over 10 µM.

And the IC50 ([27]; Homo sapiens, NCI-H1563)?
The IC50 was over 10 µM.

And the IC50 ([28]; Homo sapiens, JEG-3)?
Its IC50 is over 10 µM.

What about the IC50 ([29]; Homo sapiens, HuP-T3) of the same compound?
The IC50 was over 10 µM.

What about the IC50 ([30]; Homo sapiens, SW 1116) of the same compound?
The IC50 was over 10 µM.

What about the IC50 ([31]; Homo sapiens, SK-MEL3) of the same compound?
The IC50 was over 10 µM.

What about the IC50 ([32]; Homo sapiens, HT-1376) of the same compound?
Its IC50 is over 10 µM.

And the IC50 ([33]; Homo sapiens, KYSE-150)?
Its IC50 is over 10 µM.

What about the IC50 ([34]; Homo sapiens, NCI-H1755) of the same compound?
The IC50 was over 10 µM.

And the IC50 ([35]; Homo sapiens, SCC-9)?
The IC50 was over 10 µM.

And the IC50 ([36]; Homo sapiens, NCI-H727)?
Its IC50 is over 10 µM.

And the IC50 ([37]; Homo sapiens, H-EMC-SS)?
The IC50 was over 10 µM.

What about the IC50 ([38]; Homo sapiens, ZR-75-30) of the same compound?
The IC50 was over 10 µM.

What about the IC50 ([39]; Homo sapiens, CP50-MEL-B) of the same compound?
Its IC50 is over 10 µM.

And the IC50 ([40]; Homo sapiens, DU-145)?
Its IC50 is over 10 µM.

And the IC50 ([41]; Homo sapiens, ACHN)?
Its IC50 is over 10 µM.

What about the IC50 ([42]; Homo sapiens, NCI-H2052) of the same compound?
Its IC50 is over 10 µM.

What about the IC50 ([43]; Homo sapiens, HT1197) of the same compound?
Its IC50 is over 10 µM.

Which IC50 ([1]; hsc-3) does the source give for CISPLATIN here?
The IC50 was 21.9 µM.

And the IC50 ([2]; an3-ca)?
Its IC50 is 9.94 µM.

What about the IC50 ([3]; panc1005) of the same compound?
The IC50 was 8.61 µM.

What about the IC50 ([4]; mda-mb-361) of the same compound?
The IC50 was 18.5 µM.

What about the IC50 ([5]; rcm-1) of the same compound?
The IC50 was 123 µM.

What about the IC50 ([6]; sk-mel-24) of the same compound?
Its IC50 is 43.7 µM.

What about the IC50 ([7]; bftc-905) of the same compound?
The IC50 was 2.58 µM.

What about the IC50 ([8]; p12-ichikawa) of the same compound?
The IC50 was 2.04 µM.

And the IC50 ([9]; pc-14)?
The IC50 was 5.72 µM.

What about the IC50 ([10]; ovcar-5) of the same compound?
Its IC50 is 4.02 µM.

What about the IC50 ([11]; hop-92) of the same compound?
The IC50 was 3.51 µM.

What about the IC50 ([12]; sk-hep-1) of the same compound?
Its IC50 is 28.9 µM.

What about the IC50 ([13]; hcc1569) of the same compound?
Its IC50 is 455 µM.

And the IC50 ([14]; bftc-909)?
The IC50 was 14.9 µM.

What about the IC50 ([15]; nci-h810) of the same compound?
The IC50 was 273 µM.

What about the IC50 ([16]; cal-27) of the same compound?
Its IC50 is 6.69 µM.

And the IC50 ([17]; cal-85-1)?
The IC50 was 732 µM.

What about the IC50 ([18]; lclc-97tm1) of the same compound?
The IC50 was 19.8 µM.

And the IC50 ([19]; c-33-a)?
Its IC50 is 9.11 µM.

What about the IC50 ([20]; a2058) of the same compound?
The IC50 was 17.5 µM.

And the IC50 ([21]; kyse-510)?
Its IC50 is 3.38 µM.

What about the IC50 ([22]; aspc1) of the same compound?
Its IC50 is 21 µM.

And the IC50 ([23]; sf-295)?
Its IC50 is 9.34 µM.

And the IC50 ([24]; calu-3)?
Its IC50 is 582 µM.

And the IC50 ([25]; hucct1)?
The IC50 was 70.1 µM.

What about the IC50 ([26]; sn12c) of the same compound?
Its IC50 is 17.1 µM.

What about the IC50 ([27]; nci-h1563) of the same compound?
The IC50 was 146 µM.

And the IC50 ([28]; jeg-3)?
Its IC50 is 10.3 µM.

And the IC50 ([29]; hup-t3)?
The IC50 was 53.9 µM.

What about the IC50 ([30]; sw 1116) of the same compound?
The IC50 was 158 µM.

And the IC50 ([31]; sk-mel-3)?
Its IC50 is 684 µM.

And the IC50 ([32]; ht-1376)?
Its IC50 is 98.9 µM.

And the IC50 ([33]; kyse-150)?
The IC50 was 411 µM.

What about the IC50 ([34]; nci-h1755) of the same compound?
Its IC50 is 207 µM.

What about the IC50 ([35]; scc-9) of the same compound?
Its IC50 is 23.6 µM.

And the IC50 ([36]; nci-h727)?
The IC50 was 691 µM.

And the IC50 ([37]; h-emc-ss)?
The IC50 was 21.2 µM.

And the IC50 ([38]; zr-75-30)?
Its IC50 is 72.2 µM.

What about the IC50 ([39]; cp50-mel-b) of the same compound?
Its IC50 is 217 µM.

And the IC50 ([40]; du-145)?
The IC50 was 11.1 µM.

What about the IC50 ([41]; achn) of the same compound?
Its IC50 is 8.05 µM.

What about the IC50 ([42]; nci-h2052) of the same compound?
Its IC50 is 166 µM.

What about the IC50 ([43]; ht-1197) of the same compound?
Its IC50 is 13.3 µM.
